From publication PMC2850882, “Two additive mechanisms impair the differentiation of 'substrate-selective' p38 inhibitors from classical p38 inhibitors in vitro” (BMC Systems Biology, 2010)
Where two headings read alike, the source gives them in different places.

Key:
[1] = target: T1, p38 (Homo sapiens, UniProt Q16539); assay: ATP-p38 affinity (in-house measurement); type: binding; conditions: kinetic model parameter
T1 construct: made in house
Excerpt: In order to aid in the interpretation of the dual substrate assay, we developed a simple kinetic model of p38-mediated phosphorylation of two substrates: ATF2 and MK2 (diagrammed in Figure 3a). Since p38 has a single kinase domain and ATP binding site, we assumed that p38 can only act on a single substrate at a time. For each substrate, a random-order bi-substrate (substrate + ATP) reaction mechanism was assumed. Active p38 can reversibly bind ATP, with affinity KD, ATP and ATP binding is independent of further complex formation. Active p38 (ATP bound and unbound) can reversibly bind to ATF2 or MK2 to form complexes p38-ATF2 or p38-MK2, respectively. Each complex undergoes an irreversible catalysis step to form products phospho-ATF2 (and ADP) or phospho-MK2 (and ADP). The model equations are a set of ordinary differential equations written in terms of mass-action kinetics. For the case where only one substrate is present, this model reduces to the single substrate assay.

[2] = target: T2, p38 (phosphorylation of MK2) (Homo sapiens, UniProt Q16539); assay: Single substrate assay, phospho-MK2 readout (MSD); type: biochemical; conditions: MK2 only; measured at 30 min; ± standard error
T2 construct: made in house
T2 sequence (Q16539 whole entry): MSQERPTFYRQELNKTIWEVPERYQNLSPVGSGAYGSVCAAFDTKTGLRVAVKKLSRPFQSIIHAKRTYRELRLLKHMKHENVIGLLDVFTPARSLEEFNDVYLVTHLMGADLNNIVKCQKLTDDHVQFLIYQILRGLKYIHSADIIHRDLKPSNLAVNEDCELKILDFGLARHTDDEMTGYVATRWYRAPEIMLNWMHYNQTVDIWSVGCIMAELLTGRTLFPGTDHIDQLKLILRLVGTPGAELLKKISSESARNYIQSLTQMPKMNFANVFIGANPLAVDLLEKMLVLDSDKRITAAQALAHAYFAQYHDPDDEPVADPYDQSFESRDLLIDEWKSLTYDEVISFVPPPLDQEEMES
Method: (§1) In each case, the degree of phosphorylation serves as a readout of the activity of p38 for its respective substrate.
(§2) The ability of active p38 to phosphorylate ATF2, MK2 or both was tested in a biochemical assay. Reagents were added in the following order: compound, substrate(s), ATP, p38 for a final reaction volume of 40 ul in low protein binding 96-well plates (Immulon-1B). […] Reactions were performed in buffer containing 20 mM HEPES pH 7.5, 10 mM MgCl2, 0.01% BSA, 0.0005% Tween-20, 2% DMSO and 0.1 mM DTT. Reactions were quenched with 40 ul of buffer containing 50 mM HEPES pH 7.5, 30 mM EDTA following different incubation times. Phosphorylated ATF2 and phosphorylated MK2 were assayed as described below. Compounds were diluted in DMSO (Sigma).
Phospho-MK2 was measured with the MSD platform using an in-house assay. […] Plates were blocked with 3% MSD Blocker A in MSD Tris Wash Buffer for at least 1 hr at RT. […] Plates were incubated for > 3 hr at RT, washed 4× with 150 ul MSD Tris Wash Buffer and read on the Meso-Scale Discovery Sector imager using 2× MSD Read Buffer T.

[3] = target: T3, p38 (phosphorylation of ATF2) (Homo sapiens, UniProt Q16539); assay: Single substrate assay, phospho-ATF2 readout (MSD); type: biochemical
T3 construct: made in house
T3 sequence (Q16539 whole entry): as above
Method: as §1, §2
Phospho-ATF2 was measured with the Meso-Scale Discovery (MSD) platform using an in-house assay. […] Plates were blocked with 3% MSD Blocker A in MSD Tris Wash Buffer for at least 1 hr at RT. […] Plates were incubated for > 3 hr at RT, washed 4× with 150 ul MSD Tris Wash Buffer and read on the Meso-Scale Discovery Sector imager using 2× MSD Read Buffer T.

[4] = target: T4, p38 (phosphorylation of MK2 in presence of ATF2) (Homo sapiens, UniProt Q16539); assay: ATF2/MK2 dual substrate assay, phospho-MK2 readout (MSD); type: biochemical; conditions: 0.5 nM p38, 100 nM ATF2, 10 nM MK2, 50 uM ATP; measured at 30 min; ± standard error
T4 construct: made in house
T4 sequence (Q16539 whole entry): as above
Method: (§3) To this end, we designed a dual-substrate assay in which p38 could simultaneously phosphorylate MK2 and/or ATF2. The assay conditions chosen were 0.5 nM p38, 100 nM ATF2, 10 nM MK2, 50 uM ATP. As with the single substrate assay, MK2 phosphorylation was assayed at 30 min and ATF2 phosphorylation was assayed at 120 min to ensure that each measurement was within the linear range of the assay. ATP levels were measured at the end of the assay, to confirm that it was not being depleted.
as §2
Phospho-MK2 was measured with the MSD platform using an in-house assay. […] Plates were incubated for > 3 hr at RT, washed 4× with 150 ul MSD Tris Wash Buffer and read on the Meso-Scale Discovery Sector imager using 2× MSD Read Buffer T.

[5] = target: T5, p38 (phosphorylation of ATF2 in presence of MK2) (Homo sapiens, UniProt Q16539); assay: ATF2/MK2 dual substrate assay, phospho-ATF2 readout (MSD); type: biochemical
T5 construct: made in house
T5 sequence (Q16539 whole entry): as above
Method: as §3, §2
Phospho-ATF2 was measured with the Meso-Scale Discovery (MSD) platform using an in-house assay. […] Plates were incubated for > 3 hr at RT, washed 4× with 150 ul MSD Tris Wash Buffer and read on the Meso-Scale Discovery Sector imager using 2× MSD Read Buffer T.

[6] = target: p38-alpha (MK2 phosphorylation); set-up: method as in PMID 15362850; conditions: read-out: KI, app, p38-alpha-dependent MK2 phosphorylation; cited from earlier work
[7] = target: p38-alpha (ATF-2 phosphorylation); set-up: method as in PMID 15362850; conditions: read-out: KI, app, phosphorylation of ATF-2; cited from earlier work
[8] = target: p38-alpha (Homo sapiens) (UniProt Q16539); conditions: cited from earlier work
Sequence of p38-alpha (Homo sapiens) (Q16539 2-360): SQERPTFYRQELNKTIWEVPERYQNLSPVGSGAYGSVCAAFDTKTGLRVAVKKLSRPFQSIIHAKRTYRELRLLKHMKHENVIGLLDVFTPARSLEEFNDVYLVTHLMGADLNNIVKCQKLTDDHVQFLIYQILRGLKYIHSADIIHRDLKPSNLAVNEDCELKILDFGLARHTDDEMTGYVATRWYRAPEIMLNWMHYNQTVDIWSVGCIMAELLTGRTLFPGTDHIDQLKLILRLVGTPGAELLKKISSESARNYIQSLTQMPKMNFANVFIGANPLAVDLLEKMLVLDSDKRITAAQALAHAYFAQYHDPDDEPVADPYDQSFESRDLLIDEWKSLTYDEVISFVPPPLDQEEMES

[9] = target: p38-alpha (Homo sapiens) (UniProt Q16539); conditions: cited from earlier work; remark: listed apart in the source

Sequence of MK2 (P49137 whole entry): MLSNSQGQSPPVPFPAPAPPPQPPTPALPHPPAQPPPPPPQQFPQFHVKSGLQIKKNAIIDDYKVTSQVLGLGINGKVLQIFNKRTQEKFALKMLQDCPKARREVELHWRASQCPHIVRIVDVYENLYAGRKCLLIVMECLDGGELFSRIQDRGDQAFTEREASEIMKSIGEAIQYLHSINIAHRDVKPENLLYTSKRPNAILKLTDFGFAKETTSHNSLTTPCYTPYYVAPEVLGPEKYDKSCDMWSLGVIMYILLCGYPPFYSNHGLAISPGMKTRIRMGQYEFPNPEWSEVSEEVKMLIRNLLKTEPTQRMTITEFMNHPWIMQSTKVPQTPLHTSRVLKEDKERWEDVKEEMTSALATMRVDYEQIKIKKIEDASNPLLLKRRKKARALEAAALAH
T1 sequence (Q16539 whole entry): as the sequence (Q16539 whole entry) above
Sequence of ATF2 (P15336 whole entry): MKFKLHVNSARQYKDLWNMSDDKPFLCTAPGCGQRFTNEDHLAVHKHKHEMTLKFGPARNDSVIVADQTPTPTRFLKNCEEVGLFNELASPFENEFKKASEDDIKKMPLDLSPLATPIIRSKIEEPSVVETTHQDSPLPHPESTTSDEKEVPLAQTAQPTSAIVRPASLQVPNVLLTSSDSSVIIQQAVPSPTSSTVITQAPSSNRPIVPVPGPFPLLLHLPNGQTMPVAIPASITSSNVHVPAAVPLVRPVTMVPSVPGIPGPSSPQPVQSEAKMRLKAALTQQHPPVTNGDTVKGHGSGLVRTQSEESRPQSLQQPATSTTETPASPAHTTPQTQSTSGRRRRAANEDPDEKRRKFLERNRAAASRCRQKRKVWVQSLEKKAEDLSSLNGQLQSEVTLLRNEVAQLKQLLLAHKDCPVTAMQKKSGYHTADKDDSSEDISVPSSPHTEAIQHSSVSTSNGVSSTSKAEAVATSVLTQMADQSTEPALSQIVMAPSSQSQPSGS

## Nc1ncnc2c1ncn2[C@@H]1O[C@H](COP(=O)(O)OP(=O)(O)OP(=O)(O)O)[C@@H](O)[C@H]1O [ATP]
[1]
  Kd: 67 µM

## O=C(CCCc1ccc(-c2ccccc2F)cc1)Nc1ccc(O)cc1 [CMPD1]
[2]
  IC50: 23.4 ± 1.9 µM
[3]; ATF2 only, measured at 120 min, ± standard error
  IC50: > 400 µM
[3]; ratio of single substrate assay IC50s
  substrate selectivity = (ATF2 IC50)/(MK2 IC50), single substrate assay: >17
[4]
  IC50: 41 ± 2.2 µM
[5]; 0.5 nM p38, 100 nM ATF2, 10 nM MK2, 50 uM ATP, measured at 120 min, ± standard error
  IC50: 27 ± 16 µM
[5]; ratio of dual substrate assay IC50s
  substrate selectivity = (ATF2 IC50)/(MK2 IC50), dual substrate assay: 0.66
[6]
  Ki: 0.33 µM
[7]
  Ki: > 20 µM

## ATF2 (from UniProt P15336)
[8]
  Kd: 38 µM

## MK2 (from UniProt P49137)
[9]
  Kd: 0.02 µM
